# Measurements taken from US20240299416A1, “TREATMENT OF NF-kB-MEDIATED DISEASE” (ReveraGen BioPharma, Inc., priority 2021, published 2024).
# Assays:
# [1] = VBP15-004 adverse events, Treatment Period 2 / cross-over; format: in vivo, human
# Procedure: (§1) Subjects already on vamorolone continued on the allocated dose level. Efficacy at Week 48 was assessed by Time to Stand ([…]) velocity, 6-Minute Walk Test (6MWT), Time to Run/Walk 10 meters (TTRW) velocity, and North Star Ambulatory Assessment (NSAA). […] In contrast, the persistence of effects with vamorolone 2 mg/kg/day was less pronounced for some parameters. The safety profile was consistent for subjects who continued on the same dose of vamorolone throughout the study, with no increase in frequency or severity of adverse events being observed over time. […] In addition, vamorolone treatment at both doses reversed the growth impairment seen during prednisone treatment and was associated with fewer adverse events, including those associated with corticosteroid use.
# boys with DMD [2] = experiment: VBP15-004 efficacy at Week 48; format: in vivo, human; details: for 6MWT, change from baseline / NSAA, change from baseline / TTRW velocity, change from baseline / TTSTAND velocity, change from baseline: 6 mg/kg/day
# Procedure: as §1
# [3] = VBP15-004 adverse events at 24 weeks; design: species or system human; details: in vivo
# Source text: In certain embodiments, the symptom may be an adverse event of special interest (AESI). In this context, AESIs are prespecified based on pre-defined MedDRA search criteria for eleven AESI categories for the corticosteroid class and then further stratified into AESI of at least moderate severity. The symptoms for treating DMD with corticosteroids include, but is not limited to, behavior adverse events, blood glucose related problems, gastrointestinal symptoms, increased arterial blood pressure, immune suppression/infections, skin/hair changes, cataracts/glaucoma, cushingoid features, weight gain, bone fractures, slow growth.
# (§2) The second period of 24 weeks, where all participants receive vamorolone treatment on either of the two dose levels, will continue to capture additional longer-term safety and tolerability data.
# [4] = Physician-reported adverse events, VBP15-LTE/DSUR vs published corticosteroid studies; format: in vivo, human
# Procedure: Study visits took place quarterly, including assessment of clinical laboratory results, vital signs, and AEs. All AEs were coded using the Medical Dictionary for Regulatory Activities (MedDRA version 19.0) system for reporting (preferred term and system organ class). Clinical efficacy assessments were performed at baseline of the VBP15-002 study, at six months (end of VBP15-003 study), and the 12-month midpoint visit of the VBP15-LTE study.
# The incidences of physician-reported AEs typically for corticosteroid treatment were determined for participants that had been treated with vamorolone 6.0 mg/kg/day (for any duration), taken from the March 2019 Data Safety Update Report (DSUR) (pharmacovigilance report). Incidence rates of Cushingoid features, weight gain, hirsutism, and behavior change were studied (Table 8).
# boys with DMD [5] = experiment: VBP15-004 (VISION-DMD) Phase 2b efficacy at 24 weeks; format: in vivo, human
# Source text: as §2
# glucocorticoid receptor = target: T1, glucocorticoid receptor (Homo sapiens, UniProt P04150); details: cited from earlier work
# T1 sequence (P04150 1-777): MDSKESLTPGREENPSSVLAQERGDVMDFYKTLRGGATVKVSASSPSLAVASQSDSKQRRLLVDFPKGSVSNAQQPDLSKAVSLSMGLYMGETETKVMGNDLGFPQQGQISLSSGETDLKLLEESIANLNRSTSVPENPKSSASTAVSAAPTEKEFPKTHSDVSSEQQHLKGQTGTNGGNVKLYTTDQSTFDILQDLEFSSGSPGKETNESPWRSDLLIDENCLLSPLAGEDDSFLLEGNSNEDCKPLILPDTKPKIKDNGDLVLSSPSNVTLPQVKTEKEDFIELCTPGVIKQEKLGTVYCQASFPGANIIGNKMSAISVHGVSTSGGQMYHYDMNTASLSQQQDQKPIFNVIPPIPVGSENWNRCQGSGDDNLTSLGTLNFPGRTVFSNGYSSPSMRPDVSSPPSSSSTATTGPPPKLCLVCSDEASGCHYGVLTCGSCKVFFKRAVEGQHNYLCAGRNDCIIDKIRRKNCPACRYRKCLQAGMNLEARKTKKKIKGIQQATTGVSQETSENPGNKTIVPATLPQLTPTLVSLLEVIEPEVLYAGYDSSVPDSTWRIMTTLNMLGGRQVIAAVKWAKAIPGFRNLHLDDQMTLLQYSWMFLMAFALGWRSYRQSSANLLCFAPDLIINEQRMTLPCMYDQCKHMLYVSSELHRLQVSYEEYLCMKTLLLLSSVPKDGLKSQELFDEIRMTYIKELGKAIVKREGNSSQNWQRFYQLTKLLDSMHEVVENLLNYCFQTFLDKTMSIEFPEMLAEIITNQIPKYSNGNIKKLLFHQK
# osteocalcin, P1NP, CTX = experiment: VBP15-004 bone turnover biomarkers; format: in vivo, human
# [6] = after switch from prednisone to vamorolone 6 mg/kg/day
# [7] = Treatment Period 2 after switch from prednisone to vamorolone 6 mg/kg/day
# [8] = 6.0 mg/kg/day vamorolone, any duration, DSUR Mar. 2019
compound,measurement,setting,value
"C[C@@H]1C[C@H]2[C@@H]3CCC4=CC(=O)C=C[C@]4(C)C3=CC[C@]2(C)[C@@]1(O)C(=O)CO [Vamorolone, 17α,21-dihydroxy-16α-methylpregna-1,4,9(11)-triene-3,20-dione]",serious adverse events reported during vamorolone treatment,[1]; Treatment Period 2,Three
same,number of adverse events,[1]; [6],44
same,number of adverse events reported as behavioral disorders,[1]; [6],6
same,number of adverse events typically associated with corticosteroids,[1]; [6],16
same,reduction in number of adverse events,[1]; [6],37%
same,reduction in number of adverse events typically associated with corticosteroids,[1]; [6],60%
same,overall safety and tolerability in clinical studies,[1]; in vivo,generally safe and well-tolerated
same,"6MWT, change from baseline",boys with DMD [2]; Week 24,37 meters
same,"NSAA, change from baseline",boys with DMD [2]; Week 24,3.4 points
same,"TTRW velocity, change from baseline",boys with DMD [2]; Week 24,0.29 m/s
same,"TTSTAND velocity, change from baseline",boys with DMD [2]; Week 24,0.052 rises/s
same,"6MWT, change from baseline",boys with DMD [2]; Week 48,48 meters
same,"NSAA, change from baseline",boys with DMD [2]; Week 48,3.5 points
same,"TTRW velocity, change from baseline",boys with DMD [2]; Week 48,0.23 m/s
same,"TTSTAND velocity, change from baseline",boys with DMD [2]; Week 48,0.045 rises/s
same,6MWT distance,boys with DMD [2]; [7],408 meters
same,NSAA,boys with DMD [2]; [7],26.2 points
same,TTRW velocity,boys with DMD [2]; [7],2.20 m/s
same,TTSTAND velocity,boys with DMD [2]; [7],0.27 rises/s
same,"clinically relevant psychiatric events, subjects",[3],no vamorolone-treated subjects
same,"Aggression, any severity, F","[3]; male, human, 24 weeks",1
same,"Agitation, any severity, F","[3]; male, human, 24 weeks",1
same,"Anxiety, any severity, F","[3]; male, human, 24 weeks",1
same,"Any Behavior AESI, moderate/severe, F","[3]; male, human, 24 weeks",1
same,"Irritability, any severity, F","[3]; male, human, 24 weeks",3
same,"Mood altered, any severity, F","[3]; male, human, 24 weeks",1
same,"Poor quality sleep, any severity, F","[3]; male, human, 24 weeks",1
same,"Psychomotor hyperactivity, any severity, F","[3]; male, human, 24 weeks",2
same,"Serious adverse events, F","[3]; male, human, 24 weeks",1
same,"Skin laceration, any severity, F","[3]; male, human, 24 weeks",1
same,"Skin laceration, moderate/severe, F","[3]; male, human, 24 weeks",1
same,"Sleep disorder, any severity, F","[3]; male, human, 24 weeks",1
same,"moderate/severe behavior problems, subjects","[3]; male, human, 24 weeks",1.7%
same,Incidence of Cushingoid,[4]; [8],2.6%
same,Incidence of behavior change,[4]; [8],0%^2
same,Incidence of hypertrichosis/hirsutism,[4]; [8],0%
same,Incidence of weight gain,[4]; [8],13.2%
same,Cushingoid features among the 14 probably/definitely related AEs,"[4]; VBP15-LTE, DSMB report",1
same,TEAEs deemed definitely related,"[4]; VBP15-LTE, DSMB report",three
same,TEAEs deemed possibly related,"[4]; VBP15-LTE, DSMB report",29
same,TEAEs deemed probably related,"[4]; VBP15-LTE, DSMB report",11
same,TEAEs deemed remotely related,"[4]; VBP15-LTE, DSMB report",37
same,TEAEs deemed unrelated,"[4]; VBP15-LTE, DSMB report",402
same,increased appetite among the 14 probably/definitely related AEs,"[4]; VBP15-LTE, DSMB report",2
same,irritability among the 14 probably/definitely related AEs,"[4]; VBP15-LTE, DSMB report",1
same,serious AEs (all deemed unrelated to study drug),"[4]; VBP15-LTE, DSMB report",three
same,weight gain among the 14 probably/definitely related AEs,"[4]; VBP15-LTE, DSMB report",10
same,6MWT versus placebo,"boys with DMD [5]; 2 mg/kg/day, 24 weeks, p=0.009",superiority
same,TTSTAND velocity versus placebo,"boys with DMD [5]; 2 mg/kg/day, 24 weeks, p=0.02",superiority
same,TTSTAND,"boys with DMD [5]; 6 mg/kg/day group, baseline",6.0 s
same,efficacy endpoints versus prednisone,"boys with DMD [5]; 6 mg/kg/day vs prednisone 0.75 mg/kg/day, 24 weeks",no statistically significant differences
same,TTRW versus placebo,"boys with DMD [5]; 6 mg/kg/day, 24 weeks, p=0.002",superiority
same,6MWT versus placebo,"boys with DMD [5]; 6 mg/kg/day, 24 weeks, p=0.003",superiority
same,binding to the glucocorticoid receptor,glucocorticoid receptor,potently binds
same,"Osteocalcin, mean (SEM) change at Week 24","osteocalcin, P1NP, CTX; Vamorolone 2.0 mg",8.3 (3.1) ng/ml
same,"Procollagen 1 N-Terminal Propeptide (P1NP), mean (SEM) change at Week 24","osteocalcin, P1NP, CTX; Vamorolone 2.0 mg",48 (27) ng/mL
same,"Type I Collagen C-Telopeptides (CTX), mean (SEM) change at Week 24","osteocalcin, P1NP, CTX; Vamorolone 2.0 mg",177 (52) pg/mL
same,"Osteocalcin, difference vs. prednisone","osteocalcin, P1NP, CTX; Vamorolone 2.0 mg, Week 24",23.5 ng/mL
same,"Procollagen 1 N-Terminal Propeptide (P1NP), difference vs. prednisone","osteocalcin, P1NP, CTX; Vamorolone 2.0 mg, Week 24",182 ng/mL
same,"Type I Collagen C-Telopeptides (CTX), difference vs. prednisone","osteocalcin, P1NP, CTX; Vamorolone 2.0 mg, Week 24",477 pg/mL
same,"Osteocalcin, mean (SEM) change at Week 24","osteocalcin, P1NP, CTX; Vamorolone 6.0 mg",1.7 (2.8) ng/ml
same,"Procollagen 1 N-Terminal Propeptide (P1NP), mean (SEM) change at Week 24","osteocalcin, P1NP, CTX; Vamorolone 6.0 mg",−11 (22) ng/mL
same,"Type I Collagen C-Telopeptides (CTX), mean (SEM) change at Week 24","osteocalcin, P1NP, CTX; Vamorolone 6.0 mg",90 (44) pg/mL
same,"Osteocalcin, difference vs. prednisone","osteocalcin, P1NP, CTX; Vamorolone 6.0 mg, Week 24",16.9 ng/mL
same,"Procollagen 1 N-Terminal Propeptide (P1NP), difference vs. prednisone","osteocalcin, P1NP, CTX; Vamorolone 6.0 mg, Week 24",124 ng/mL
same,"Type I Collagen C-Telopeptides (CTX), difference vs. prednisone","osteocalcin, P1NP, CTX; Vamorolone 6.0 mg, Week 24",390 pg/mL
same,"effect on bone biomarkers (osteocalcin, PINP, CTX)","osteocalcin, P1NP, CTX; Week 24, vamorolone 2.0 and 6.0 mg/kg",did not decrease bone biomarkers
